Two compounds from patent US20110293745A1, “AURORA KINASE INHIBITORS” (SUNESIS PHARMACEUTICALS, INC., priority 2008, published 2011) can be followed below.

A value given as a limit tells only on which side of the number the result lay.

The test system of one data set is HCT 116 cells. Briefly: Fluorescent imaging (DNA and tubulin). Type of data set: cell-based, human. To be noted: 16 nM, 72 hr. As to the method: Cells were then fixed with 4% paraformaldehyde for 20 min at room temperature, washed with 1×PBS three times, permeabilized with 0.1% Triton® X-100 nonionic surfactant for 5 min at room temperature, washed with 1×PBS twice, blocked with 10% fetal bovine serum (FBS) in PBS for 2 hr at room temperature. The cells were incubated in a diluted alpha-tubulin primary antibody solution in 10% FBS for 2 days at 4° C., and stained with DAPI (DNA/.blue) and with a diluted FITC-labeled secondary antibody (tubulin/green) solutions in 10% FBS for 1 hr at room temperature away from light. Cells were then washed in 1×PBS and the coverslips were mounted on slides and analyzed with a […]2 fluorescence microscope with a 63× oil immersion objective. Images were captured on a […] camera and analyzed using Image-Pro software. For both images captured, the same objective was used.

Data set [1] has as its system phospho-histone H3 in HCT 116 cells. Briefly: Phospho-histone H3 staining (High Content Screening). Type of data set: cell-based. To be noted: Homo sapiens. On the procedure: Analysis of phospho-histone H3 (pHH3) levels was performed on adherent cells using high-content screening methodology. […]. This series was diluted 1000× in RPMI-1640 containing 10% FBS (1× treatment concentration: 10 μM-0.0002 μM). […].
Then, medium was aspirated and cells were incubated in 100 μL/well 4% formaldehyde for 15 min at room temperature.
[…]. […] Data were fit to an IC50 equation. […]. Cells were trypsinized, collected, lysed, and analyzed by immunoblotting.

The test system of a further data set is pHH3 in A2780. Briefly: cells. To be noted: Homo sapiens, A2780, 1 h, read-out: pHH3 IC50. As to the method:
(§1) For analysis of pHH3 on adherent cells (HCT116, A375, and H1299), tumor cells were grown in 96-well tissue culture plates overnight at 37° C. […] Cells were fixed, permeabilized and exposed to anti-pHH3 antibody and analyzed for pHH3 staining. Data were fit to an IC50 equation. For analysis of pHH3 on nonadherent cells or cells with irregular morphology (A2780, Calu-6, and HT-29), tumor cells were seeded in 6-well tissue culture plates overnight at 37° C. […] Cells were trypsinized, collected, lysed, and analyzed by immunoblotting.

The subject of the next data set is pHH3 in A375. Briefly: cells. To be noted: Homo sapiens, A-375, 1 h, read-out: pHH3 IC50. As to the method:
as §1

In a further data set the test system is pHH3 in Calu-6. Description: cells. To be noted: Homo sapiens, Calu-6, 1 h, read-out: pHH3 IC50. As to the method: as §1
A further data set relates to pHH3 in H1299. Briefly: cells. To be noted: Homo sapiens, NCI-H1299, 1 h, read-out: pHH3 IC50. On the procedure:
as §1

The test system of data set [2] is pHH3 in HCT 116 tumor xenograft. Description: Phospho-histone H3 in vivo (Western blot of tumor). To be noted: single 50 mg/kg and 100 mg/kg IP; 3 hr, 6 hr, 10 hr post administration. Also noted: species or system mouse. The text has this: For each of the studies of compound distribution, pHH3 levels, and tumor section microscopy, after the tumors reached an average volume of 500 mm^3, the animals were weighed and sorted into randomized groups before initial dosing.
(In general: A western blot detects proteins with antibodies after separation by electrophoresis.)

In data set [3] the test system is MV-4-11 (human acute myeloid leukemia) xenograft. Description: In vivo efficacy, mouse xenograft. To be noted: 150 mg/kg IP twice-weekly for 3 weeks. As to the method:
The human cell line MV-4-11 (human acute myeloid leukemia) was established as subcutaneous xenografts in nu/nu female mice. Animals were randomized by tumor volume and distributed into groups of ten animals each. Treatments were initiated when tumors averaged about 200 mm^3 in volume. End points for each group were determined based on body weight nadir, adverse clinical observations, or tumor volumes exceeding maximum threshold of 2000 mm^3.
[…]. Responses were assessed by tumor growth inhibition (TGI) and tumor growth delay (TGD). TGI and TGD in the treatment group were evaluated against the vehicle control group.

Data set [4] has as its system histone H3 phosphorylation in skin biopsies. Description: Clinical pharmacodynamics, skin punch biopsies. Type of data set: in vivo, human. To be noted: Cycle 1, Day 1, 3-7 hours after start of infusion. On the procedure:
Clinical pharmacodynamic assessments were performed as follows. Skin punch biopsy samples were collected prior to (e.g., just prior to or up to 14 days prior to) treatment and during Cycle 1, Day 1 of treatment at between 3 and 7 hours after the start of the 3-hour infusion. Skin punch biopsy samples were analyzed for inhibition of histone H3 phosphorylation.

Another data set has as its system panel of 219 kinases. To be noted: read-out: IC50 of the remaining 197 kinases.
Data set [5] is described as follows: Pharmacokinetics, single bolus intravenous injection. Type of data set: in vivo, beagle dogs. To be noted: beagle, dog, plasma, 5 mg/kg. From the text:
Pharmacokinetic parameters were estimated using noncompartmental analysis within WinNonlin v. 4.1. Quantification of Compound 2 was done by HPLC-MS/MS after extraction from plasma with acetonitrile. […] For rising dose experiments measuring exposure for each species, sets containing several animals were singly dosed at a given dose. Results from single-dose experiments are shown in FIG. 10A, Table 43, and in FIG. 10B and Table 44, respectively. […] C0 is initial concentration extrapolated to time zero. AUCINF is area under the plasma-concentration time curve from time zero extrapolated to the infinite time. CL is clearance; Vss is steady state volume of distribution. T1/2 is half-life.

The nature of data set [6]: Mass balance, elimination, autoradiography and metabolites with 14C-label. Type of data set: in vivo. To be noted: male rats, 14C-labeled Compound 1 IV bolus 50 mg/kg, total radioactivity. On the procedure: Treated rats were further cannulated in femoral vein and the bile duct to allow for the evaluation of the rate and extent of elimination of total radioactivity from urine, bile, and feces. Total radioactivity was analyzed by liquid scintillation counting.
Preparation of samples for metabolite analysis was as follows. Plasma samples were extracted by protein precipitation with acetonitrile. The extraction was preformed by adding ice cold acetonitrile (3 parts) to plasma (1 part v/v). After the samples were mixed using a benchtop vortex mixer the samples were centrifuged, the supernatants were transferred to silanized glass tubes, evaporated to dryness under nitrogen, and reconstituted in 50/50 acetonitrile/water solution. Urine samples were directly injected. Bile samples containing radioactivity were diluted in water prior to injection.
Metabolites in plasma, urine, and bile were separated on a reverse phase HPLC column with an Agilent 1000 system (Santa Clara, Calif.).

One may read the EC50 as the concentration that produces a half-maximal response. Usually IC50 stands for the concentration that gives 50% inhibition. For `CS(=O)(=O)O.O=C(Nc1cccc(Cl)c1)Nc1ncc(CCNc2ncnc3ccsc23)s1` [Compound 1, 1-(3-chlorophenyl)-3-{5-[2-(thieno[3,2-d]pyrimidin-4-ylamino)ethyl]thiazo}-urea], the cell morphology entry with HCT 116 cells is listed as “formation of large polyploid cells”. In data set [1] (HCT 116, 1 hour treatment, read-out: EC50 of the reduction of pHH3), the EC50 was ~9 nM. Besides, the IC50 in [1] (HCT 116, 1 hour, pHH3 staining) is 9 nM; in the data set on pHH3 in A2780, 150 nM; with pHH3 in A375 it was 15 nM; with pHH3 in Calu-6, 60 nM; in the data set on pHH3 in H1299, 58 nM; in the data set with panel of 219 kinases it was ≥ 1000 nM. Further, the “level of pHH3 in tumor versus vehicle-treated mice” value in data set [2] is on record as “decreased”. In data set [3], this compound displayed a tumor growth delay of 10 days. The “Percent tumor growth inhibition (% TGI)” value in data set [3] (p-value 0.0008) is reported as 75.56%. Further, the “doses at which inhibition of pHH3 was observed in skin biopsies of patients” value in data set [4] is on record as ≥ 240 mg/m^2.

What is called AUC(0-inf) is total exposure, with the tail of the curve extrapolated. A low value points to less exposure. The term clearance denotes the volume of plasma or blood freed of the substance per unit of time. Read a high clearance as efficient removal. By half-life is commonly meant the time in which the quantity being followed falls by half. As to `O=C(Nc1cccc(Cl)c1)Nc1ncc(CCNc2ncnc3ccsc23)s1` [Compound 2, 1-(3-chlorophenyl)-3-{5-[2-(thieno[3,2-d]pyrimidin-4-ylamino)ethyl]thiazol-2-yl}-urea], in [5], the AUC(0-inf) worked out at 12300 ng·h/mL. In data set [5], this compound had a C0 of 2800 ng/mL. Moreover, the clearance in [5] stood at 6.8 mL/min/kg. This compound had a half-life in [5] of 1.1 h. Besides, the Vd in [5] (read-out: Vss) was 1 L/kg. The “Mean cumulative % recovery” value in data set [6] (Bile, interval 0-8 hr) was 39.7%; in data set [6] (Bile, interval 8-24 hr), 68.5%; in [6] (Bile, interval 24-48 hr), 69.5%; in [6] (Cumulative Total, 24 hr) it was 89.7%; in data set [6] (Cumulative Total, 48 hr), 92.3%; in [6] (Feces, interval 0-24 hr), 11.8%. For the same compound, the “Mean cumulative % recovery” value in data set [6] (Feces, interval 24-48 hr) is given as 13.2%; in [6] (Urine, interval 0-8 hr) it was 6.1%; in data set [6] (Urine, interval 8-24 hr) it was 9.4%; in [6] (Urine, interval 24-48 hr), 9.6%.
